Like-named read-outs stand apart in the source and are kept apart here.

The text below walks through data of article PMC4434572, “Identification of novel drugs to target dormant micrometastases” (BMC Cancer, 2015).

One data set concerns PC-3 (prostate). The data set is described as follows: Proliferation EC50 on SISgel vs monolayer. It counts as cell-based. The settings on record: n = 6-8. From the text: (§1) The libraries were obtained from the NCI (Diversity Library I) comprised of 2,918 compounds and a 10,000 compound diversity library from ChemBridge, Inc. (DiverSet-EXP). The NCI library is no longer available in the form used here, but how it was constructed is described (http://dtp.nci.nih.gov/branches/dscb/diversity_explanation.html). The ChemBridge library is a subset (Set Code NM1024) of the full 50,000 compound library (http://www.chembridge.com/screening_libraries/diversity_libraries/). Compounds were diluted to 100 μM before use. SISgel was prepared as described previously from powdered porcine small intestine submucosa obtained from Cook Biotech (W. Lafayette, IN). It is a natural product that is used extensively in tissue engineering as a bioscaffold. J82 bladder cancer cells and other cell lines were obtained from the ATCC (Bethesda, MD). The basic principle is that cells grown on any ECM are, in general, expected to show higher resistance to anticancer compounds than when grown on plastic. Therefore, compounds that show a higher activity toward cancer cells on a normal ECM than on a plastic surface would be candidates to target suppressed, micrometastatic cells. Efficacy in vitro was assessed by plating 30,000 cells in 50 μL of high glucose DMEM with penicillin-streptomycin and 10 % fetal calf serum on SISgel in a 96-well plate containing 50 μL of gelled SISgel per well. Cells were allowed to attach and assume the SISgel phenotype for 48 h. A matching plate without SISgel was prepared 24 h later by pipetting 3,000 cells in 100 μL of high glucose DMEM with penicillin-streptomycin and 10 % fetal calf serum into each well of 96 well plate. The cells were allowed to attach and grow for 24 h. These numbers of cells gave approximately equal replication rates at the time drug was added for cells grown on the plastic surface or SISgel as determined by the fraction of S-phase cells identified by flow cytometry. The cells were exposed to drug in fresh medium for 48 h, at which time the cell number was determined using the CFDA-AM cellular esterase proliferation assay (cat. #C1354, Life Technologies). For screening the results are reported as the ratio of cell count of cells on the plastic surface to the cell count on SISgel. An initial difference of 1.5 fold identified potential hits. All potential hits were confirmed in triplicate. Those compounds that replicated were confirmed by a full dose–response study yielding an EC50 using five wells per drug concentration. Data were analyzed using nonlinear regression to a sigmoid curve with Prism 4 (GraphPad Software, Inc., LaJolla, CA). Potential hits that were confirmed by dose–response using J82 were also tested with MDA-MB-435 breast cancer, PC-3 metastatic prostate cancer, Capan1 pancreatic cancer and the J82 bladder cancer cell lines.

Another data set concerns MDA-MB-231 (breast). The data set can be described thus: Proliferation EC50 on SISgel vs monolayer. The class given is cell-based. The settings on record: n = 6-8.
The subject of another data set is MDA-MB-435 cells. The data set can be described thus: Proliferation (CFDA-AM esterase assay) of cells grown on SISgel, plastic or Matrigel, 48 h drug exposure. It counts as cell-based. The note with it: for SI (EC50-P/EC50-S): ratio of EC50 on plastic versus SISgel.
From the text: as §1

A further data set concerns mice. The data set can be described thus: Toxicity / maximum tolerated dose in mice. The note with it: for NOAEL dose, osmotic pump: Alzet #2004 osmotic pump, 4 weeks; for MTD / toxicity in mice: mice.
Data set [1] relates to cancer cells on SISgel or plastic. The data set is described as follows: Activity of leads and analogs on cancer cells grown on plastic vs SISgel (cell line not stated). It counts as cell-based. The settings on record: for Hit: YES/NO; for SR: ratio IC50-p/IC50-S. In outline:
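Cells on SISgel (30,000/well, 48 h attachment) or plastic (3,000/well, 24 h) were exposed to compound (diluted to 100 μM) for 48 h in high-glucose DMEM with 10 % FCS. Cell number quantified by CFDA-AM esterase assay; results given as plastic:SISgel cell-count ratio, hits confirmed in triplicate, curves fitted sigmoidally.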

Setting [2] is: PC-3 monolayer, read-out: EC50 Monolayer.
Where [3] appears, read: PC-3 on SISgel, read-out: EC50 SISgel.
[4] abbreviates: MDA-MB-435 cells on SISgel, read-out: EC50-S.
The mark [5] stands for this setting: MDA-MB-435 cells on plastic, read-out: EC50-P.
[6] abbreviates: cells on SISgel, read-out: IC50-S.
Setting [7] is: cells on plastic, read-out: IC50-p.

As for `COc1cccc2c1C(=O)c1c(O)c3c(c(O)c1C2=O)C[C@@](O)(C(=O)CO)C[C@@H]3O[C@H]1C[C@H](N)[C@H](O)[C@H](C)O1` [Doxorubicin, reference compound], the EC50 worked out at 104 ± 6.1 µM with PC-3 (prostate) (setting [2]); 102 ± 7 µM in the data set with PC-3 (prostate) (setting [3]); 45.4 ± 1.9 µM in the data set on MDA-MB-231 (breast) (Homo sapiens, MDA-MB-231 monolayer, read-out: EC50 Monolayer); 47.8 ± 4 µM in the data set on MDA-MB-231 (breast) (Homo sapiens, MDA-MB-231 on SISgel, read-out: EC50 SISgel); 45.4 µM in the data set on MDA-MB-435 cells (Homo sapiens, MDA-MB-435 cells on SISgel, read-out: EC50-S); 47.8 µM in the data set on MDA-MB-435 cells (Homo sapiens, MDA-MB-435 cells on plastic, read-out: EC50-P). Moreover, in the data set with MDA-MB-435 cells, the “SI (EC50-P/EC50-S)” value was determined as 1.05.
As to `O=S(=O)([O-])c1cc(O)c2c(O)c(N=Nc3cccc4ccccc34)c(S(=O)(=O)[O-])cc2c1.[Na+].[Na+]` [DT320, 4,5-Dihydroxy-3-(1-naphthalenylazo)-2,7-naphthalenedisulfonic acid disodium salt], the EC50 with PC-3 (prostate) (setting [2]) was found to be 41.5 ± 4.1 µM; with PC-3 (prostate) (setting [3]), 19.7 ± 2 µM; with MDA-MB-231 (breast) (MDA-MB-231 monolayer, read-out: EC50 Monolayer), 78.1 ± 7.1 µM; with MDA-MB-231 (breast) (MDA-MB-231 on SISgel, read-out: EC50 SISgel), 8.7 ± 1.1 µM; with MDA-MB-435 cells (setting [4]), 8.7 µM; in the data set with MDA-MB-435 cells (setting [5]), 78 µM. Moreover, the Ratio in the data set on MDA-MB-435 cells (Matrigel/SISgel EC50, MDA-MB-435) came out at 2.4. In the data set on MDA-MB-435 cells, the “SI (EC50-P/EC50-S)” value turned out to be 9.0. Besides, in the data set with mice, the “NOAEL dose, osmotic pump” value was 26.7 µg/h. The same compound showed an MTD in the data set with mice of 75 mg/kg. The “toxicity in mice” value with mice was “very low toxicity”. In addition, in data set [1], the Hit entry is reported as “YES”. The concentration for half-maximal inhibition (IC50) in data set [1] (setting [6]) was determined as 9 µM; in data set [1] (setting [7]), 78 µM. In data set [1], the SR is 9.0.
For `O=S(=O)([O-])c1ccc2c(N=Nc3cccc4ccccc34)c(O)c(S(=O)(=O)[O-])cc2c1.[Na+].[Na+]` [DT310, 4-(1-naphthalenylhydrazinylidene) -3-oxonaphthalene-2,7-disulfonic acid], the EC50 with MDA-MB-435 cells (setting [4]) was determined as 35.9 µM. Also, in the data set with MDA-MB-435 cells (setting [5]), the EC50 stood at 86.5 µM. Besides, in the data set on MDA-MB-435 cells, the “SI (EC50-P/EC50-S)” value came out at 2.4. Besides, in the data set on mice, the “NOAEL dose, osmotic pump” value was determined as 23.4 µg/h; the maximal tolerated dose (MTD) is on record as 65 mg/kg; the “toxicity in mice” value is recorded as “very low toxicity”. Besides, in data set [1], the Hit result was “YES” and the SR amounted to 2.4. Further, the 50% inhibitory concentration (IC50) in data set [1] (setting [6]) turned out to be 36 µM. The half-maximal inhibitory concentration (IC50) in data set [1] (setting [7]) came to 87 µM.
